This experiment concerns the target EGFR (UniProt P00533). Briefly: Inhibition of EGFR Kinase Activity.

The structures appear in SMILES notation.

EGFR, sequence (P00533 whole entry, looked up): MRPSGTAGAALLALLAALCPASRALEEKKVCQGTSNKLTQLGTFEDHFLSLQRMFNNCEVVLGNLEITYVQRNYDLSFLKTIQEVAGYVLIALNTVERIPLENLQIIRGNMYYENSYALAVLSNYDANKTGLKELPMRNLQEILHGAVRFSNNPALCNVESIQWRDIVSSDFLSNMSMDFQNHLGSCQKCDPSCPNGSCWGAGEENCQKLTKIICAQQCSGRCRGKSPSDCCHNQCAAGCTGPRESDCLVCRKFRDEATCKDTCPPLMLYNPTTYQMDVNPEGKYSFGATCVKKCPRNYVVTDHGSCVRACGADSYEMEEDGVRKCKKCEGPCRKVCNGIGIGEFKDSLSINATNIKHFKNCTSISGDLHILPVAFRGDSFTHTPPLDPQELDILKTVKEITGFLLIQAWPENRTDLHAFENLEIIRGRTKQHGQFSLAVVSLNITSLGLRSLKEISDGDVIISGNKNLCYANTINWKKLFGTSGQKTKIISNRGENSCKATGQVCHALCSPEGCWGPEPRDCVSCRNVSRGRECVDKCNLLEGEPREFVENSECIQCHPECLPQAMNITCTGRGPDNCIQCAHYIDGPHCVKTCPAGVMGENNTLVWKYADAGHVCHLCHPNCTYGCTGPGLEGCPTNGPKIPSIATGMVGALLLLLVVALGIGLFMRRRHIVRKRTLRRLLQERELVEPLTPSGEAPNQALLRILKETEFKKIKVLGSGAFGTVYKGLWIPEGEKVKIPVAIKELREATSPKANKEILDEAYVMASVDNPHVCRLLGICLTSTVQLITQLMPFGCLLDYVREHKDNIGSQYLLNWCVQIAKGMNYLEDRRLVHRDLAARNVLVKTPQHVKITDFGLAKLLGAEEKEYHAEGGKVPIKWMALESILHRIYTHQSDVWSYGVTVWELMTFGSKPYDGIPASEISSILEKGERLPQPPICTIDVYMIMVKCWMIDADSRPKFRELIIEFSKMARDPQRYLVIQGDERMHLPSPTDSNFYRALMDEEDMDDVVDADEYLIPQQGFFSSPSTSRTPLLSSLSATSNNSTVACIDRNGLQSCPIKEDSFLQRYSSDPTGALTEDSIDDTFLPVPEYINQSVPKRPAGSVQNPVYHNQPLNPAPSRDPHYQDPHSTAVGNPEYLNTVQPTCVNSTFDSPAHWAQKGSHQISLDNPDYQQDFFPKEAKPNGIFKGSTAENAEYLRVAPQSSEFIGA

`COc1ccc(N2C(=O)N(c3ccccc3)c3nc(Nc4ccccc4)ncc3[C@@H]2C)cc1`: the IC50 – broadly, the midpoint of a concentration-inhibition curve – is less than 10 µM.
On to `COc1ccc(N2C(=O)N(c3cccc(C(N)=O)c3)c3nc(Nc4ccccc4)ncc3C2C)cc1` (configuration not stated), for which the IC50 was less than 10 µM.
Take `COc1ccc(N2C(=O)N(c3cccc(C#N)c3)c3nc(Nc4ccccc4)ncc3C2C)cc1` (configuration not stated): the half-inhibitory concentration (IC50) is less than 10 µM.
`COc1ccc(Cl)c(N2C(=O)N(c3ccccc3)c3nc(Nc4ccccc4)ncc3C2C)c1` (configuration not stated): the IC50 is less than 10 µM.
Turning to `COc1ccc(N2C(=O)N(c3cccc(C#N)c3)c3nc(Nc4ccccc4)ncc3C2C)c(F)c1` (configuration not stated), the concentration for half-maximal inhibition (IC50) is less than 10 µM.
With `COc1ccc(N2C(=O)N(c3cccc(C(N)=O)c3)c3nc(Nc4ccccc4)ncc3C2C)c(F)c1` (configuration not stated) the figure was less than 10 µM.
For `COc1ccc(N2C(=O)N([C@H](C)CO)c3nc(Nc4ccccc4)ncc3[C@@H]2C)cc1`, the IC50 is less than 10 µM.
Consider `COc1ccc(N2C(=O)N([C@H]3CC[C@H](O)CC3)c3nc(Nc4ccccc4)ncc3C2C)cc1` (some centres not stated), for which the IC50 was less than 10 µM.
With `COc1ccc(N2C(=O)N(c3ccccc3)c3nc(Nc4ccccc4)ncc3C2C)c(F)c1` (configuration not stated) the figure was less than 10 µM.
For the compound `COc1ccc(N2C(=O)N([C@@H](C)c3ccccc3)c3nc(Nc4ccccc4)ncc3C2C)cc1` (some centres not stated), the IC50 was less than 10 µM.
Take `COc1ccc(N2C(=O)N(c3ccccc3)c3nc(N(C(C)=O)c4ccccc4)ncc3C2C)cc1` (configuration not stated): the IC50 is less than 10 µM.
As for `COc1ccc(N2C(=O)N(c3ccccc3)c3nc(Nc4ccccc4)ncc3C2C)cc1` (configuration not stated), the IC50 was less than 10 µM.
Regarding `COc1ccc(N2C(=O)N([C@H](C)CO)c3nc(Nc4ccccc4)ncc3[C@H]2C)cc1`, the IC50 is less than 10 µM.
On to `COc1ccc(N2C(=O)N(c3ccc(OC)cc3)C(C)c3cnc(Nc4ccccc4)nc32)cc1` (configuration not stated), for which the IC50 was less than 10 µM.
For the compound `COc1ccc(N2C(=O)N(c3ccccc3)c3nc(Nc4ccccc4)ncc3C2C(C)C)cc1` (configuration not stated), the IC50 was less than 10 µM.
In turn, `CCC1c2cnc(Nc3ccccc3)nc2N(c2ccccc2)C(=O)N1c1ccc(OC)cc1` (configuration not stated) yielded an IC50 of less than 10 µM.
For `COc1ccc(N2C(=O)N(c3ccccc3)c3nc(Nc4ccccc4)ncc3[C@H]2C)cc1`, the IC50 was less than 10 µM.
